Among the data in ChEMBL document CHEMBL3817795, “Identification and optimisation of a series of N-(4-anilino-2-pyridyl)acetamide activin receptor-like kinase 1 (ALK1) inhibitors” (Medchemcomm, 2016) are logD and solubility values, retold here.

Converted amounts (≈) assume the structure as drawn.

For orientation: logD means lipophilicity at a set pH, counting ionised and neutral species. By solubility is commonly meant how much of the substance goes into solution per volume. The low end stands for a poorly soluble substance, the high end for a readily soluble substance.

One data set is described as follows: Lipophilicity, log D of the compound at pH 7.4. Format: physicochemical. To be noted: buffer.
The molecule `O=C(Nc1cc(Nc2cccc3c2OCO3)ccn1)C1CC1` had a logD of 3.7. In turn, `O=C(Nc1cc(Nc2c(Cl)ccc3c2OCO3)ccn1)C1CC1` registered a pH-dependent lipophilicity (logD) of 3.3. On the same count and under the same terms, next, `CC(=O)Nc1cc(Nc2c(Cl)ccc3c2OCO3)ccn1`: 2.7; `O=C(Nc1cc(Nc2ccccc2)ccn1)C1CC1`: 3.3.

The nature of the next data set: Solubility of the compound. Format: physicochemical.
Settings: not given
`O=C(Nc1cc(Nc2ccccc2Cl)ccn1)C1CC1`: the solubility was determined as 49 µM (≈ 14.1 µg/mL). Still for that read-out and setting: for `O=C(Nc1cc(Nc2c(Cl)ccc3c2OCO3)ccn1)C1CC1` the value was 46 µM (≈ 15.3 µg/mL).
